Measurements reported in patent US20130121961A1, “TREATMENT MODALITIES TO PREVENT OR TREAT LOSS OF CARDIOVASCULAR FUNCTION IN AGING HUMANS” (THE JOHNS HOPKINS UNIVERSITY, priority 2011, published 2013).
Entries after “also recorded” stand apart in the source; their conditions may differ. Read-outs that look alike come from different tables or passages of the source. Each block holds one compound with its values, some of them ahead of it.

Key:
[1] = tested on: WT mouse aorta; assay: Force-tension myography, ACH dependent vasorelaxation of phenylephrine pre-constricted WT aortic rings; assay type: cell-based
From the text: (§1) Animals: Age-matched IL-10 deficient (IL-10(tm/tm)); B6.129P2IL10tm1Cgn/J and control mice (C576L6; WT) were obtained from Jackson Laboratories (Bar Harbor, Me., USA). IL-10(tm/tm) mice used are homozygous for the IL10tm1Cgn targeted mutation. These mice were housed in Association for Assessment and Accreditation of Laboratory Animal Care International accredited facilities and pathogen contact prevention (prophylaxis from infections, inflammatory bowel disease and early mortality) was achieved under specific pathogen-free (SPF) barrier conditions until terminal experiments were carried out. It is known that the pro-inflammatory potential achieved by the lack of IL-10 in this mouse model can be attributed to activation of TNF-α and IL-1β synthesis via IFN-γ, which is produced in massive amounts and also is important inantigen presentation and pathogen death via activation of macrophages. Animals with any signs of inflammatory/infectious disease were ruled out of the study. The study was performed at approximately 3-4 months (young) and 9 months of age or greater (old).
(§2) Vascular endothelial function was assessed using force-tension myography. Mouse aortas were isolated and cleaned in ice-cold Krebs-Ringer-bicarbonate solution containing the following (in mM): 118.3 NaCI, 4.7 KCI, 1.6 CaCl2, 1.2 KH2 PO4, 25 NaHCO3, 1.2 MgSO4, and 11.1 dextrose. Vascular tension changes were determined as previously described (J Appl Physiol, 2000. 89(6): p. 2382-90). Briefly, one end of the aortic rings was connected to a transducer, and the other to a micromanipulator. The aorta was immersed in a bath filled with constantly oxygenated Krebs buffer at 37° C. Equal size thoracic aortic rings (2 mm) were mounted using a microscope, ensuring no damage to the smooth muscle or endothelium. The aortas were passively stretched to an optimal resting tension using the micromanipulator, after which a dose of 60 mM KCI was administered, and repeated after a wash with Krebs buffer. After these washes, the vessels were allowed to equilibrate for 20-30 min. Phenylephrine (1 μM) was administered to induce vasoconstriction. A dose-dependent response (1 nM to 10 μM), with the muscarinic agonist, ACH, was then performed. The responses were repeated in the presence of inhibitors. Relaxation responses were calculated as a percentage of tension following pre-constriction. Sigmoidal dose-response curves were fitted to data with the minimum constrained to 0.
(§3) Vascular Studies. In ex vivo myograph experiments, measured tension represents a balance between vasorelaxant and vasoconstrictor dependent function and mediators. In phenylephrine pre-constricted isolated mouse aorta, ACH stimulates the release of endothelial factors, which mediate vasorelaxation as a result of greater relaxation than constriction.

[2] = tested on: IL-10(tm/tm) mouse aorta; assay: Force-tension myography, ACH dependent vasorelaxation of phenylephrine pre-constricted IL-10(tm/tm) aortic rings; assay type: cell-based; settings: for EC50 / Emax: Mus musculus; for Effect on endothelial dependent vasorelaxation / Effect on vasoconstrictive responses to ACH: old IL-10(tm/tm) aortas
From the text: as §1, §2, §3

[3] = pre-incubation with 100 nM SQ29548
[4] = pre-incubation with 3 μM indomethacin
[5] = pre-incubation with 5 μM nimesulide

- EC50 ([1]; old WT mice aortas, n=6, read-out: EC50 of ACH mediated vasorelaxation): 251 nM
- EC50 ([1]; young WT mice aortas, phenylephrine pre-constricted, read-out: EC50 of ACH dose response (vasorelaxation)): 126 nM
- EC50 ([2]; old IL-10(tm/tm) mice aortas, n=6, read-out: EC50 of ACH mediated vasorelaxation): 39.4 nM
- EC50 ([2]; young IL-10(tm/tm) mice aortas, phenylephrine pre-constricted, read-out: EC50 of ACH dose response (vasorelaxation)): 50.1 nM
Compound: CC(=O)OCC[N+](C)(C)C [ACH, Acetylcholine]
- Emax ([1]; old WT mice aortas, n=6, read-out: Emax of ACH mediated vasorelaxation): 98.5 ± 14.1%
- Emax ([1]; young WT mice aortas, phenylephrine pre-constricted, read-out: Emax of ACH dose response (vasorelaxation)): 80.9 ± 4.6%
- Emax ([2]; old IL-10(tm/tm) mice aortas, n=6, read-out: Emax of ACH mediated vasorelaxation): 30.7 ± 9.3%
- Emax ([2]; young IL-10(tm/tm) mice aortas, phenylephrine pre-constricted, read-out: Emax of ACH dose response (vasorelaxation)): 71.9 ± 5.7%

Compound: O=C(O)CCC/C=C\C[C@@H]1[C@H](CNNC(=O)Nc2ccccc2)[C@H]2CC[C@@H]1O2 [SQ29548]
- Effect on endothelial dependent vasorelaxation [2, 3]: enhanced endothelial dependent vasorelaxation; also recorded: significantly improved endothelial dependent vasorelaxation
- Effect on vasoconstrictive responses to ACH [2, 3]: abolished the vasoconstrictive responses

Compound: COc1ccc2c(c1)c(CC(=O)O)c(C)n2C(=O)c1ccc(Cl)cc1 [indomethacin]
- Effect on endothelial dependent vasorelaxation [2, 4]: significantly improved endothelial dependent vasorelaxation
- Effect on vasoconstrictive responses to ACH [2, 4]: abolished the vasoconstrictive responses

Compound: CS(=O)(=O)Nc1ccc([N+](=O)[O-])cc1Oc1ccccc1 [nimesulide]
- Effect on endothelial dependent vasorelaxation [2, 5]: enhanced endothelial dependent vasorelaxation; also recorded: significantly improved endothelial dependent vasorelaxation
- Effect on vasoconstrictive responses to ACH [2, 5]: abolished the vasoconstrictive responses
